# Reference: patent publication US20240391862A1, “(1,4,5-TRISUBSTITUTED-1H-PYRAZOL-3-YL)OXY-2-ALKOXY ALKYL ACIDS AND THEIR DERIVATIVES, THEIR SALTS AND THEIR USE AS HERBICIDAL AGENTS” (Bayer AKtiengesellschaft, priority 2021, published 2024)
# Assays:
# ZEAMX = test: Post-emergence herbicidal effect and crop plant compatibility, greenhouse pot test; type: in vivo, Zea mays; conditions: one-leaf stage, rated visually after about 3 weeks vs untreated controls; for plant injury at 20 g/ha / plant injury at 80 g/ha / plant injury at 320 g/ha: Zea mays, 504 h; for plant injury at 20 g/ha: read-out: Post-emergence effect at 20 g/ha against ZEAMX in %; for plant injury at 80 g/ha: read-out: Post-emergence effect at 80 g/ha against ZEAMX in %; for plant injury at 320 g/ha: read-out: Post-emergence effect at 320 g/ha against ZEAMX in %
# Procedure, shortened: (§1)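 Greenhouse pot test: weeds and crops sown in sandy loam, sprayed post-emergence at one-leaf stage (2–3 weeks after sowing) with WP or EC formulations plus 0.5% additive at 600 l/ha water, rates 20–320 g/ha. Visual rating about 3 weeks later versus untreated controls (100% = dead, 0% = as control).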
# TRZAS = test: as above; type: in vivo, Triticum aestivum; conditions: for percent crop injury (phytotoxicity) to wheat, post-emergence at 20 g/ha: Triticum aestivum, 504 h, read-out: Post-emergence effect at 20 g/ha against TRZAS in %; for percent crop injury (phytotoxicity) to wheat, post-emergence at 20 g/ha / Post-emergence effect at 20 g/ha against TRZAS in %: one-leaf stage, rated visually after about 3 weeks vs untreated controls; for Post-emergence effect against TRZAS: visual rating about 3 weeks after treatment, crop plant
# Description: • ALOMY: Alopecurus myosuroides SETVI: Setaria viridis • AVEFA: Avena fatua POLCO: Fallopia convolvulus • AMARE: Amaranthus retroflexus ECHCG: Echinochloa crus-galli • LOLRJ: Lolium rigidum STEME: Stellaria media • VERPE: Veronica persica MATIN: Tripleurospermum inodorum • DIGSA: Digitaria sanguinalis ABUTH: Abutylon threophrasti • TRZAS: Triticum aestivum VIOTR: Viola tricolor • BRSNW: Brassica napus ZEAMX: Zea mays • PHBPU: Ipomoea purpurea GLXMA: Glycine max • ORYSA: Oryza sativa HORMU: Hordeum murinum
# Seeds of monocotyledonous and dicotyledonous weeds and crop plants are placed in sandy loam in plastic or organic planting pots, covered with soil and cultivated in a greenhouse under controlled growth conditions. 2 to 3 weeks after sowing, the trial plants are treated at the one-leaf stage. The compounds of the invention, formulated in the form of wettable powders (WP) or as emulsion concentrates (EC), are then sprayed onto the green parts of the plants as aqueous suspension or emulsion with addition of 0.5% additive at a water application rate of 600 l/ha (converted). After the test plants have been kept in the greenhouse under optimum growth conditions for about 3 weeks, the activity of the preparations is rated visually in comparison to untreated controls. For example, 100% activity=the plants have died, 0% activity=like control plants.
# Tables 20a to 38c below show the effects/crop compatibilities of selected compounds of the general formula (I) on various harmful plants at an application rate corresponding to 20 to 320 g/ha, which were obtained by the trial procedure specified above.
# VERPE = test: Post-emergence herbicidal effect, greenhouse pot test; type: in vivo, Veronica persica
# Procedure, shortened: as §1
# AMARE = test: as above; type: in vivo, Amaranthus retroflexus; conditions: visual rating about 3 weeks after treatment
# Procedure, shortened: as §1
# POLCO = test: as above; type: in vivo, Fallopia convolvulus
# Procedure, shortened: as §1
# VIOTR = test: as above; type: in vivo, Viola tricolor
# Procedure, shortened: as §1
# KCHSC = test: as above; type: in vivo
# Procedure, shortened: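 Greenhouse plants in sandy loam, sprayed post-emergence at the one-leaf stage (2–3 weeks after sowing) with WP or EC formulations in water plus 0.5% additive at 600 l/ha. Rates 20 to 320 g/ha. Activity rated visually after about 3 weeks against untreated controls (0% like control, 100% dead).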
# PHBPU = test: as above; type: in vivo, Ipomoea purpurea
# Procedure, shortened: as §1
# ABUTH = test: as above; type: in vivo, Abutilon theophrasti; conditions: visual rating about 3 weeks after treatment
# Procedure, shortened: as §1
# LOLRI = test: as above; type: in vivo, Lolium rigidum
# Procedure, shortened: as §1
# AVEFA = test: as above; type: in vivo, Avena fatua; conditions: visual rating about 3 weeks after treatment
# Procedure, shortened: as §1
# ECHCG = test: as above; type: in vivo, Echinochloa crus-galli; conditions: for Post-emergence effect against ECHCG: 20 g/ha, visual rating about 3 weeks after treatment
# Procedure, shortened: as §1
# MATIN = test: as above; type: in vivo, Tripleurospermum inodorum
# Procedure, shortened: as §1
# SETVI = test: as above; type: in vivo, Setaria viridis
# Procedure, shortened: as §1
# DIGSA = test: as above; type: in vivo, Digitaria sanguinalis; conditions: visual rating about 3 weeks after treatment
# Procedure, shortened: as §1
# ALOMY = test: as above; type: in vivo, Alopecurus myosuroides; conditions: visual rating about 3 weeks after treatment
# Procedure, shortened: as §1
smiles,measurement,setting,value
COC(Oc1nn(-c2cnccn2)c(-c2ccc(F)nc2)c1Br)C(=O)O (stereo not drawn) [Example I-43],plant injury at 20 g/ha,ZEAMX; 20 g/ha,0%
same,plant injury at 80 g/ha,ZEAMX,0%
same,"percent crop injury (phytotoxicity) to wheat, post-emergence at 20 g/ha",TRZAS,0%
COC(Oc1nn(-c2ncccc2F)c(-c2ccc(F)nc2)c1Cl)C(=O)O (stereo not drawn) [Example I-44],plant injury at 20 g/ha,ZEAMX; 20 g/ha,0%
same,plant injury at 80 g/ha,ZEAMX,0%
same,plant injury at 320 g/ha,ZEAMX,0%
same,"percent crop injury (phytotoxicity) to wheat, post-emergence at 20 g/ha",TRZAS,0%
CCOC(Oc1nn(-c2ccccc2F)c(-c2ccc(F)nc2)c1Cl)C(=O)O (stereo not drawn) [Example I-52],plant injury at 20 g/ha,ZEAMX; 20 g/ha,0%
same,plant injury at 80 g/ha,ZEAMX,0%
same,plant injury at 320 g/ha,ZEAMX,0%
same,"percent crop injury (phytotoxicity) to wheat, post-emergence at 20 g/ha",TRZAS,0%
COC(=O)CCOC(=O)C(OC)Oc1nn(-c2ncccc2F)c(-c2cncc(F)c2)c1C1CC1 (stereo not drawn) [Example I-82],Post-emergence effect against VERPE in %,VERPE; 80 g/ha,90%
same,Post-emergence effect against VERPE in %,VERPE; 320 g/ha,90%
same,Post-emergence effect against AMARE,AMARE; 80 g/ha,90%
same,Post-emergence effect against AMARE,AMARE; 320 g/ha,90%
same,Post-emergence effect against POLCO in %,POLCO; 20 g/ha,80%
same,Post-emergence effect against POLCO in %,POLCO; 80 g/ha,80%
same,Post-emergence effect against POLCO in %,POLCO; 320 g/ha,90%
same,Post-emergence effect against VIOTR in %,VIOTR; 20 g/ha,80%
same,Post-emergence effect against VIOTR in %,VIOTR; 80 g/ha,90%
same,Post-emergence effect against VIOTR in %,VIOTR; 320 g/ha,90%
same,Post-emergence effect against KCHSC in %,KCHSC; 20 g/ha,90%
same,Post-emergence effect against KCHSC in %,KCHSC; 80 g/ha,90%
same,Post-emergence effect against KCHSC in %,KCHSC; 320 g/ha,90%
same,Post-emergence effect against PHBPU in %,PHBPU; 80 g/ha,80%
same,Post-emergence effect against PHBPU in %,PHBPU; 320 g/ha,90%
same,Post-emergence effect against ABUTH,ABUTH; 20 g/ha,80%
same,Post-emergence effect against ABUTH,ABUTH; 80 g/ha,90%
same,Post-emergence effect against ABUTH,ABUTH; 320 g/ha,90%
same,Post-emergence effect against LOLRI in %,LOLRI; 320 g/ha,90%
same,Post-emergence effect against AVEFA,AVEFA; 80 g/ha,90%
same,Post-emergence effect against AVEFA,AVEFA; 320 g/ha,90%
same,Post-emergence effect against ECHCG,ECHCG,80%
same,Post-emergence effect against ECHCG in %,ECHCG; 80 g/ha,90%
same,Post-emergence effect against ECHCG in %,ECHCG; 320 g/ha,90%
same,Post-emergence effect at 20 g/ha against ZEAMX in %,ZEAMX; 20 g/ha,20%
same,Post-emergence effect against MATIN in %,MATIN; 80 g/ha,80%
same,Post-emergence effect against MATIN in %,MATIN; 320 g/ha,90%
same,Post-emergence effect against SETVI in %,SETVI; 20 g/ha,90%
same,Post-emergence effect against SETVI in %,SETVI; 80 g/ha,90%
same,Post-emergence effect against SETVI in %,SETVI; 320 g/ha,90%
same,Post-emergence effect against DIGSA,DIGSA; 80 g/ha,90%
same,Post-emergence effect against DIGSA,DIGSA; 320 g/ha,90%
same,Post-emergence effect against ALOMY,ALOMY; 320 g/ha,90%
COC(=O)C(OC)Oc1nn(-c2ncccc2F)c(-c2cncc(F)c2)c1C1CC1 (stereo not drawn) [Example I-86],Post-emergence effect against VERPE in %,VERPE; 80 g/ha,80%
same,Post-emergence effect against VERPE in %,VERPE; 320 g/ha,90%
same,Post-emergence effect against AMARE,AMARE; 80 g/ha,80%
same,Post-emergence effect against AMARE,AMARE; 320 g/ha,90%
same,Post-emergence effect against POLCO in %,POLCO; 80 g/ha,80%
same,Post-emergence effect against POLCO in %,POLCO; 320 g/ha,90%
same,pest or weed control at 20 g/ha,"POLCO; Fallopia convolvulus, 504 h, 20 g/ha, read-out: Post-emergence effect against POLCO in %",80%
same,Post-emergence effect against VIOTR in %,VIOTR; 80 g/ha,90%
same,Post-emergence effect against VIOTR in %,VIOTR; 320 g/ha,90%
same,Post-emergence effect against KCHSC in %,KCHSC; 80 g/ha,90%
same,Post-emergence effect against KCHSC in %,KCHSC; 320 g/ha,90%
same,Post-emergence effect against PHBPU in %,PHBPU; 20 g/ha,80%
same,Post-emergence effect against PHBPU in %,PHBPU; 80 g/ha,90%
same,Post-emergence effect against PHBPU in %,PHBPU; 320 g/ha,90%
same,Post-emergence effect against ABUTH,ABUTH; 80 g/ha,80%
same,Post-emergence effect against ABUTH,ABUTH; 320 g/ha,80%
same,Post-emergence effect against LOLRI in %,LOLRI; 80 g/ha,90%
same,Post-emergence effect against LOLRI in %,LOLRI; 320 g/ha,90%
same,pest or weed control at 20 g/ha,"LOLRI; Lolium rigidum, 504 h, 20 g/ha, read-out: Post-emergence effect against LOLRI in %",80%
same,Post-emergence effect against AVEFA,AVEFA; 80 g/ha,90%
same,Post-emergence effect against AVEFA,AVEFA; 320 g/ha,90%
same,pest or weed control at 20 g/ha,"AVEFA; Avena fatua, 504 h, 20 g/ha, read-out: Post-emergence effect against AVEFA",80%
same,Post-emergence effect against ECHCG,ECHCG,80%
same,Post-emergence effect against ECHCG in %,ECHCG; 80 g/ha,90%
same,Post-emergence effect against ECHCG in %,ECHCG; 320 g/ha,90%
same,plant injury at 20 g/ha,ZEAMX; 20 g/ha,0%
same,plant injury at 80 g/ha,ZEAMX,0%
same,Post-emergence effect against MATIN in %,MATIN; 320 g/ha,90%
same,Post-emergence effect against SETVI in %,SETVI; 80 g/ha,90%
same,Post-emergence effect against SETVI in %,SETVI; 320 g/ha,90%
same,Post-emergence effect against DIGSA,DIGSA; 320 g/ha,80%
same,Post-emergence effect against ALOMY,ALOMY; 80 g/ha,90%
same,Post-emergence effect against ALOMY,ALOMY; 320 g/ha,90%
COC(=O)CCOC(=O)C(OC)Oc1nn(-c2cccc(C)c2F)c(-c2ccc(F)nc2)c1Br (stereo not drawn) [Example I-95],Post-emergence effect against VERPE in %,VERPE; 80 g/ha,80%
same,Post-emergence effect against VERPE in %,VERPE; 320 g/ha,90%
same,Post-emergence effect against AMARE,AMARE; 80 g/ha,80%
same,Post-emergence effect against AMARE,AMARE; 320 g/ha,90%
same,Post-emergence effect against VIOTR in %,VIOTR; 80 g/ha,80%
same,Post-emergence effect against VIOTR in %,VIOTR; 320 g/ha,90%
same,Post-emergence effect against PHBPU in %,PHBPU; 80 g/ha,90%
same,Post-emergence effect against PHBPU in %,PHBPU; 320 g/ha,90%
same,Post-emergence effect against ABUTH,ABUTH; 80 g/ha,80%
same,Post-emergence effect against ABUTH,ABUTH; 320 g/ha,90%
same,Post-emergence effect against ECHCG,ECHCG,80%
same,Post-emergence effect against ECHCG in %,ECHCG; 80 g/ha,90%
same,Post-emergence effect against ECHCG in %,ECHCG; 320 g/ha,100%
same,Post-emergence effect against MATIN in %,MATIN; 80 g/ha,80%
same,Post-emergence effect against MATIN in %,MATIN; 320 g/ha,80%
same,Post-emergence effect against SETVI in %,SETVI; 320 g/ha,90%
same,Post-emergence effect at 20 g/ha against TRZAS in %,TRZAS,0%
same,Post-emergence effect against TRZAS,TRZAS; 80 g/ha,0%
same,Post-emergence effect against TRZAS,TRZAS; 320 g/ha,0%
COC(=O)C(OC)Oc1nn(-c2cccc(C)c2F)c(-c2ccnc(F)c2)c1Br (stereo not drawn) [Example I-115],Post-emergence effect against VERPE in %,VERPE; 320 g/ha,80%
same,Post-emergence effect against PHBPU in %,PHBPU; 320 g/ha,80%
same,Post-emergence effect against ABUTH,ABUTH; 320 g/ha,80%
same,Post-emergence effect against AVEFA,AVEFA; 320 g/ha,80%
same,Post-emergence effect against ECHCG in %,ECHCG; 320 g/ha,90%
same,Post-emergence effect against SETVI in %,SETVI; 320 g/ha,90%
same,Post-emergence effect at 20 g/ha against TRZAS in %,TRZAS,0%
same,Post-emergence effect against TRZAS,TRZAS; 80 g/ha,10%
same,Post-emergence effect against TRZAS,TRZAS; 320 g/ha,20%
